Experimental data as given in patent US8268990B2, “Compounds” (AstraZeneca AB, priority 2007, dated 2012).

Target: T1, Recombinant human TLR7 (Homo sapiens, UniProt Q9NYK1)
T1 construct: expressed in transfected cells; host or cells: HEK293 cell line stably expressing the pNiFty2-SEAP reporter plasmid; TLR7 in vector pUNO, blasticidin selection
T1 sequence (Q9NYK1 27-1049): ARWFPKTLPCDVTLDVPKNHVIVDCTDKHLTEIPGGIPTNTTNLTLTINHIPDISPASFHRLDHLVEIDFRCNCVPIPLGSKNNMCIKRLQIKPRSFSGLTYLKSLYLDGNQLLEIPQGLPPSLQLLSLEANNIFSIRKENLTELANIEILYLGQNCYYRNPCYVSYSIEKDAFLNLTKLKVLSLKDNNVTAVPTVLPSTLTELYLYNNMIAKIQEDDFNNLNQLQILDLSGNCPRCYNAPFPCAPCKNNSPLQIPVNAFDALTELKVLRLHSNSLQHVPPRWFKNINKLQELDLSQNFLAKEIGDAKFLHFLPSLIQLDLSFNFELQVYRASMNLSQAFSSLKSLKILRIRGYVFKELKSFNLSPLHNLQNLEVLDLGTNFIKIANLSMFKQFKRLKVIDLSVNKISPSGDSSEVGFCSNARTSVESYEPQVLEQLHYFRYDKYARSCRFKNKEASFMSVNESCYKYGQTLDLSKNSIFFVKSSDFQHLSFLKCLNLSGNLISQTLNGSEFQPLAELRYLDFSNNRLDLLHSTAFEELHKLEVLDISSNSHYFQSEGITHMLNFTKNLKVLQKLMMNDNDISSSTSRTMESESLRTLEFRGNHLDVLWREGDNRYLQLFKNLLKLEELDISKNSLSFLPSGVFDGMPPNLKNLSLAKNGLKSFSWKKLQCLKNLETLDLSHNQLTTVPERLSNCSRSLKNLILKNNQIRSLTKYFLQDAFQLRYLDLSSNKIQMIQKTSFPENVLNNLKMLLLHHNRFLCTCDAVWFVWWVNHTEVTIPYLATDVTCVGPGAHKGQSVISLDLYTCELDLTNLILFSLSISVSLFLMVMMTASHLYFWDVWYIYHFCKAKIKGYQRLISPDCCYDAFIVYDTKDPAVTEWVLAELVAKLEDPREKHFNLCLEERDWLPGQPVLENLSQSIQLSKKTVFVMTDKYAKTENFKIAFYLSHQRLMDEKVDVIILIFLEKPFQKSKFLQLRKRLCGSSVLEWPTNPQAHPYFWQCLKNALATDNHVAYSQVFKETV
Assay: Human TLR7 Assay (SEAP reporter);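 note: SEAP driven by an NFkB-responsive composite promoter, pEC50 read at half of each compound's own maximal SEAP induction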
Format: cell-based
Settings: HEK293 cell line stably expressing human TLR7 and pNiFty2-SEAP reporter; SEAP induction after overnight incubation at 37° C., 0.1% (v/v) DMSO
Excerpt: Recombinant human TLR7 was stably expressed in a HEK293 cell line already stably expressing the pNiFty2-SEAP reporter plasmid; integration of the reporter gene was maintained by selection with the antibiotic zeocin. The most common variant sequence of human TLR7 (represented by the EMBL sequence AF240467) was cloned into the mammalian cell expression vector pUNO and transfected into this reporter cell-line. Transfectants with stable expression were selected using the antibiotic blasticidin. In this reporter cell-line, expression of secreted alkaline phosphatase (SEAP) is controlled by an NFkB/ELAM-1 composite promoter comprising five NFkB sites combined with the proximal ELAM-1 promoter. TLR signaling leads to the translocation of NFkB and activation of the promoter results in expression of the SEAP gene. TLR7-specific activation was assessed by determining the level of SEAP produced following overnight incubation of the cells at 37° C. with the standard compound in the presence of 0.1% (v/v) dimethylsulfoxide (DMSO). Concentration dependent induction of SEAP production by compounds was expressed as the concentration of compound which produced half of the maximal level of SEAP induction for that compound (pEC50).

Row | SMILES | EC50 [nM]
1 | CCC[C@@H](CCO)Nc1nc(N)nc(C)c1Cc1ccc(CC(=O)OCCC2CCN(C)CC2)cc1F [Example 100, (S)-2-(1-Methylpiperidin-4-yl)ethyl 2-(4-((2-amino-4-(1-hydroxyhexan-3-ylamino)-6-methylpyrimidin-5-yl)methyl)-3-fluorophenyl)acetate] | 31.6
2 | CCCC[C@@H](CO)Nc1nc(N)nc(C)c1Cc1ccc(CC(=O)OC)cc1OC [Example 32, (S)-Methyl 2-(4-((2-amino-4-(1-hydroxyhexan-2-ylamino)-6-methylpyrimidin-5-yl)methyl)-3-methoxyphenyl)acetate] | 50.1
3 | CCCCCNc1nc(N)nc(C)c1Cc1ccc(CC(=O)OCC(C)(C)CN(C)C)cc1 [Example 55, 3-(Dimethylamino)-2,2-dimethylpropyl 2-(4-((2-amino-4-methyl-6-(pentylamino)pyrimidin-5-yl)methyl)phenyl)acetate] | 126
4 | CCCCCNc1nc(N)nc(C)c1Cc1ccc(CC(=O)OC)cc1F [Example 22, Methyl 2-(4-((2-amino-4-methyl-6-(pentylamino)pyrimidin-5-yl)methyl)-3-fluorophenyl)acetate] | 631
5 | CCCCNc1nc(N)nc(C)c1Cc1cc(CC(=O)OCCCCN(C)C)ccc1OC [Example 97, 4-(Dimethylamino)butyl 2-(3-((2-amino-4-(butylamino)-6-methylpyrimidin-5-yl)methyl)-4-methoxyphenyl)acetate] | 31.6
6 | CCCCCNc1nc(N)nc(C)c1Cc1ccc(CC(=O)OCCCN2CCOCC2)cc1 [Example 58, 3-Morpholinopropyl 2-(4-((2-amino-4-methyl-6-(pentylamino)pyrimidin-5-yl)methyl)phenyl)acetate] | 126
7 | CCCCNc1nc(N)nc(C)c1Cc1ccc(CC(=O)OC)cc1 [Example 41, Methyl 2-(4-((2-amino-4-(butylamino)-6-methylpyrimidin-5-yl)methyl)phenyl)acetate] | 1000
8 | CCCCNc1nc(N)nc(C)c1Cc1ccc(CC(=O)OCCCCN2CCCC2)cc1OC [Example 73, 4-(Pyrrolidin-1-yl)butyl 2-(4-((2-amino-4-(butylamino)-6-methylpyrimidin-5-yl)methyl)-3-methoxyphenyl)acetate] | 5.01
9 | CCCCCNc1nc(N)nc(C)c1CCCN(Cc1cccc(CC(=O)OC)c1)C(=O)CCCN(C)C [Example 12, Methyl 2-(3-((N-(3-(2-amino-4-methyl-6-(pentylamino)pyrimidin-5-yl)propyl)-4-(dimethylamino)butanamido)methyl)phenyl)acetate] | 1580
10 | CCCCNc1nc(N)nc(C)c1Cc1ccc(CC(=O)OCC2CCN(C)CC2)cc1O [Example 103, (1-Methylpiperidin-4-yl)methyl 2-(4-((2-amino-4-(butylamino)-6-methylpyrimidin-5-yl)methyl)-3-hydroxyphenyl)acetate] | 126
11 | CCCCCNc1nc(N)nc(C)c1CCCN(Cc1cccc(CC(=O)OC)c1)C(=O)CN1CCC[C@H]1C(=O)OC [Example 5, (S)-Methyl 1-(2-((3-(2-amino-4-methyl-6-(pentylamino)pyrimidin-5-yl)propyl)(3-(2-methoxy-2-oxoethyl)benzyl)amino)-2-oxoethyl)pyrrolidine-2-carboxylate] | 631
12 | CCC[C@@H](CCO)Nc1nc(N)nc(C)c1Cc1ccc(CC(=O)OCC2CCN(C)CC2)cc1F [Example 74, (S)-(1-Methylpiperidin-4-yl)methyl 2-(4-((2-amino-4-(1-hydroxyhexan-3-ylamino)-6-methylpyrimidin-5-yl)methyl)-3-fluorophenyl)acetate] | 39.8
13 | CCCCCNc1nc(N)nc(C)c1Cc1cccc(CC(=O)OCCCCN2CCCC2)c1 [Example 84, 4-(Pyrrolidin-1-yl)butyl 2-(3-((2-amino-4-methyl-6-(pentylamino)pyrimidin-5-yl)methyl)phenyl)acetate] | 316
14 | CCCCNc1nc(N)nc(C)c1Cc1ccc(CC(=O)OCCCCN2CCCC2)cc1O [Example 79, 4-(Pyrrolidin-1-yl)butyl 2-(4-((2-amino-4-(butylamino)-6-methylpyrimidin-5-yl)methyl)-3-hydroxyphenyl)acetate] | 126
15 | CCCCCNc1nc(N)nc(C)c1Cc1ccc(CC(=O)OCCCCN2CCN(C)CC2)cc1 [Example 63, 4-(4-Methylpiperazin-1-yl)butyl 2-(4-((2-amino-4-methyl-6-(pentylamino)pyrimidin-5-yl)methyl)phenyl)acetate] | 158
16 | CCCC[C@@H](CCO)Nc1nc(N)nc(C)c1CCCN(Cc1ccc(CC(=O)OC)cc1)C(=O)CN(C)C [Example 19, (S)-Methyl 2-(4-((N-(3-(2-amino-4-(1-hydroxyheptan-3-ylamino)-6-methylpyrimidin-5-yl)propyl)-2-(dimethylamino)acetamido)methyl)phenyl)acetate] | 2510
17 | CCCCCNc1nc(N)nc(C)c1Cc1ccc(CC(=O)OC)cc1OC [Example 21, Methyl 2-(4-((2-amino-4-methyl-6-(pentylamino)pyrimidin-5-yl)methyl)-3-methoxyphenyl)acetate] | 15.8
18 | CCCCNc1nc(N)nc(C)c1Cc1ccc(CC(=O)OCCCCN2CCC(N(C)C)CC2)cc1OC [Example 90, 4-(4-(Dimethylamino)piperidin-1-yl)butyl 2-(4-((2-amino-4-(butylamino)-6-methylpyrimidin-5-yl)methyl)-3-methoxyphenyl)acetate] | 25.1
19 | CCC[C@@H](CCO)Nc1nc(N)nc(C)c1Cc1ccc(CC(=O)OC)cc1F [Example 45, (S)-Methyl 2-(4-((2-amino-4-(1-hydroxyhexan-3-ylamino)-6-methylpyrimidin-5-yl)methyl)-3-fluorophenyl)acetate] | 50.1
20 | CCC[C@@H](CO)Nc1nc(N)nc(C)c1Cc1ccc(CC(=O)OC)cc1 [Example 43, (S)-Methyl 2-(4-((2-amino-4-(1-hydroxypentan-2-ylamino)-6-methylpyrimidin-5-yl)methyl)phenyl)acetate] | 794
21 | CCC[C@@H](CCO)Nc1nc(N)nc(C)c1Cc1ccc(CC(=O)OC)cc1OC [Example 48, (S)-Methyl 2-(4-((2-amino-4-(1-hydroxyhexan-3-ylamino)-6-methylpyrimidin-5-yl)methyl)-3-methoxyphenyl)acetate] | 2
22 | CCCCCNc1nc(N)nc(C)c1CCCN(Cc1ccc(CC(=O)OC)cc1)C(=O)CN1CCOCC1 [Example 27, Methyl 2-(4-((N-(3-(2-amino-4-methyl-6-(pentylamino)pyrimidin-5-yl)propyl)-2-morpholinoacetamido)methyl)phenyl)acetate] | 2000
23 | CCCCCNc1nc(N)nc(C)c1CCCCNCc1cccc(CC(=O)OC)c1 [Example 17, Methyl 2-(3-((4-(2-amino-4-methyl-6-(pentylamino)pyrimidin-5-yl)butylamino)methyl)phenyl)acetate] | 1000
24 | CCC[C@@H](CCO)Nc1nc(N)nc(C)c1Cc1ccc(CC(=O)OCCCCN2CCN(C)CC2)cc1F [Example 87, (S)-4-(4-Methylpiperazin-1-yl)butyl 2-(4-((2-amino-4-(1-hydroxyhexan-3-ylamino)-6-methylpyrimidin-5-yl)methyl)-3-fluorophenyl)acetate] | 25.1
25 | CCCCCNc1nc(N)nc(C)c1Cc1ccc(CC(=O)OCC2CCN(CCOC)CC2)cc1 [Example 62, (1-(2-Methoxyethyl)piperidin-4-yl)methyl 2-(4-((2-amino-4-methyl-6-(pentylamino)pyrimidin-5-yl)methyl)phenyl)acetate] | 200
26 | CCCCCNc1nc(N)nc(C)c1Cc1cccc(CC(=O)OCC2CCN(C)CC2)c1 [Example 85, (1-Methylpiperidin-4-yl)methyl 2-(3-((2-amino-4-methyl-6-(pentylamino)pyrimidin-5-yl)methyl)phenyl)acetate] | 501
27 | CCCCCNc1nc(N)nc(C)c1Cc1ccc(CC(=O)OCCCCN2CCCC2)cc1 [Example 61, 4-(Pyrrolidin-1-yl)butyl 2-(4-((2-amino-4-methyl-6-(pentylamino)pyrimidin-5-yl)methyl)phenyl)acetate] | 126
28 | CCCCNc1nc(N)nc(C)c1Cc1ccc(CC(=O)OCCCCN(C)C)cc1O [Example 102, 4-(Dimethylamino)butyl 2-(4-((2-amino-4-(butylamino)-6-methylpyrimidin-5-yl)methyl)-3-hydroxyphenyl)acetate] | 100
29 | CCC[C@@H](CCO)Nc1nc(N)nc(C)c1Cc1ccc(CC(=O)OCCCCN(C)C)cc1 [Example 94, (S)-4-(Dimethylamino)butyl 2-(4-((2-amino-4-(1-hydroxyhexan-3-ylamino)-6-methylpyrimidin-5-yl)methyl)phenyl)acetate] | 126
